≈ marks a conversion by molar mass, not a printed value.
Tests used:
Assay type in all cases: functional
Enterococcus faecium [1] = test: In vitro antibacterial activity against vancomycin resistant strain Streptococcus faecium 02D3IP1
Staphylococcus aureus [2] = test: In vitro antibacterial activity against oxacilline resistant strain Staphylococcus aureus O11CB20
Enterococcus faecium [3] = test: In vitro antibacterial activity against sensitive strain Streptococcus faecium M78L
Staphylococcus aureus [4] = test: In vitro antibacterial activity against sensitive strain Staphylococcus aureus SG 511
Escherichia coli = test: In vitro antibacterial activity against Escherichia coli UC 1894
Streptococcus pyogenes = test: In vitro antibacterial activity against sensitive strain Streptococcus pyogenes 77A
[5] = tested on: Staphylococcus epidermidis; test: In vitro antibacterial activity against oxacilline resistant strain Staphylococcus epidermidis 012GO39
Enterococcus faecalis = test: In vitro antibacterial activity against vancomycin resistant strain Streptococcus faecalis 02D2DU17

| Compound | MIC (Enterococcus faecium [1]) [µg/mL] | MIC (Staphylococcus aureus [2]) [µg/mL] | MIC (Enterococcus faecium [3]) [µg/mL] | MIC (Staphylococcus aureus [4]) [µg/mL] | MIC (Escherichia coli) [µg/mL] | MIC (Streptococcus pyogenes) [µg/mL] | MIC [5] [µg/mL] | MIC (Enterococcus faecalis) [µg/mL] |
| --- | --- | --- | --- | --- | --- | --- | --- | --- |
| CC(=O)NC[C@H]1CN(c2ccc(C(C)=O)cc2)C(=O)O1 [DUP-721] | < 1.2 | 1.2 (≈ 4.34 µM) | 2.5 (≈ 9.05 µM) | 1.2 (≈ 4.34 µM) | > 40 | 0.6 (≈ 2.17 µM) | 2.5 (≈ 9.05 µM) | 2.5 (≈ 9.05 µM) |
| CC(=O)NC[C@@H]1CCN(c2ccc(C(C)=O)cc2)C1 | > 40 |  | > 40 | > 40 | > 40 | > 40 | > 40 | > 40 |
| CC(=O)NC[C@H]1C=C(c2ccc(C(C)=O)cc2)C(=O)O1 | 2.5 (≈ 9.15 µM) | 1.2 (≈ 4.39 µM) | 5 (≈ 18.3 µM) | 1.2 (≈ 4.39 µM) | > 40 | 2.5 (≈ 9.15 µM) | 2.5 (≈ 9.15 µM) | 2.5 (≈ 9.15 µM) |
| CC(=O)NC[C@@H]1CC(=O)N(c2ccc(C(C)=O)cc2)C1 | > 40 |  | > 40 | > 40 | > 40 | > 40 | > 40 | > 40 |

From ChEMBL document CHEMBL1127945, “5-Aryl-, butenolide, a new class of antibacterial derived from the N-aryl oxazolidinone DUP 721” (1994)
